The target in experiment [1] is T1, Melanocortin receptor 3 (Homo sapiens, UniProt P41968). Nature of the experiment: Displacement of [125I]NDP-MSH from human recombinant MC3 receptor expressed in Sf9 cells. For orientation: In a radioligand displacement assay an active substance lowers the binding of a labelled ligand.
In experiment [2] the target is T2, Melanocortin receptor 5 (Homo sapiens, UniProt P33032). Nature of the experiment: Displacement of [125I]NDP-MSH from human recombinant MC5 receptor expressed in Sf9 cells.
For experiment [3], the target named is T2, Melanocortin receptor 5. Put plainly: Antagonist activity at MC5 receptor expressed in COS1 cells assessed as inhibition of alpha-MSH-induced cAMP accumulation at 100 uM. The format is functional, cell-based. The following applies: COS-1. A general note: cAMP levels reflect the balance of adenylyl cyclase and phosphodiesterase activity.
Experiment [4] concerns the target T3, Melanocortin receptor 4 (Homo sapiens, UniProt P32245). Put plainly: Displacement of [125I]NDP-MSH from human recombinant MC4 receptor expressed in Sf9 cells.
Experiment [5] has as its target T1, Melanocortin receptor 3. Put plainly: Antagonist activity at MC3 receptor expressed in COS1 cells assessed as inhibition of alpha-MSH-induced cAMP accumulation at 100 uM. The settings on record: COS-1. The format is functional, cell-based.
Experiment [6] concerns the target T3, Melanocortin receptor 4. Nature of the experiment: Antagonist activity at MC4 receptor expressed in COS1 cells assessed as inhibition of alpha-MSH-induced cAMP accumulation at 100 uM. Type of experiment: functional, cell-based. The following applies: COS-1.
Experiment [7] deals with Melanocyte-stimulating hormone receptor (Mus musculus) (UniProt Q01727). Put plainly: Antagonist activity MC1 receptor in mouse B16 cells assessed as inhibition of alpha-MSH-induced cAMP accumulation at 100 uM. The format is functional, cell-based.
The target of experiment [8] is T4, Melanocyte-stimulating hormone receptor (Mus musculus, UniProt Q01727). Put plainly: Displacement of [125I]NDP-MSH from MC1 receptor in mouse B16 cells. The format is cell-based.
Experiment [9] is described as follows: Selectivity for mouse MC1 receptor over human MC3 receptor.
Experiment [10] can be described thus: Selectivity for mouse MC1 receptor over human MC5 receptor.
Experiment [11] is described as follows: Selectivity for mouse MC1 receptor over human MC4 receptor.
The target of experiment [12] is T1, Melanocortin receptor 3. Put plainly: Displacement of [125I]NDP-MSH from human recombinant MC3 receptor expressed in Sf9 cells up to 1 mM.
The target in experiment [13] is T2, Melanocortin receptor 5. Put plainly: Displacement of [125I]NDP-MSH from human recombinant MC5 receptor expressed in Sf9 cells up to 1 mM.
Experiment [14] has as its target T4, Melanocyte-stimulating hormone receptor. Nature of the experiment: Displacement of [125I]NDP-MSH from MC1 receptor in mouse B16 cells up to 1 mM. The format is cell-based.
For experiment [15], the target named is T3, Melanocortin receptor 4. Put plainly: Displacement of [125I]NDP-MSH from human recombinant MC4 receptor expressed in Sf9 cells up to 1 mM.

Active and inactive are the calls of the source. No cut-off for these calls is given here.

T3 sequence (P32245 whole entry): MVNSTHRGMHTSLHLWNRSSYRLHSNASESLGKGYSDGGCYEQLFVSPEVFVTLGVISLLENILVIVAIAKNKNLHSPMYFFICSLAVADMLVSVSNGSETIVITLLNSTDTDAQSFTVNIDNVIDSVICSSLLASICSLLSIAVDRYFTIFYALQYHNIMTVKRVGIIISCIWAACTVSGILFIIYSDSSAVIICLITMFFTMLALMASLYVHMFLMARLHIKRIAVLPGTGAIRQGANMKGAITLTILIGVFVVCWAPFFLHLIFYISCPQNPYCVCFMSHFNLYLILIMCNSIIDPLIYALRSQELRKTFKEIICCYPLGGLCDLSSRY
T4 sequence (Q01727 whole entry): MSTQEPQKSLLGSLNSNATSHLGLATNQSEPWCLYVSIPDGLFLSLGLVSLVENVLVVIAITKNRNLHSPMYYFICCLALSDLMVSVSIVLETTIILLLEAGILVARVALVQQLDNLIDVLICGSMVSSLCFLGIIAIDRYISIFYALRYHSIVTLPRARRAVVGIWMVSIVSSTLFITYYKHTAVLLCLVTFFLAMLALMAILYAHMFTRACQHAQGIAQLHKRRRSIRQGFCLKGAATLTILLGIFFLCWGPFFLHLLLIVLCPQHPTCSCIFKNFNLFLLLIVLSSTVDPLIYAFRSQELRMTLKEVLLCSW
Chain of Melanocyte-stimulating hormone receptor (Mus musculus) (Q01727 whole entry, looked up): as the sequence (Q01727 whole entry) above
T1 sequence (P41968 whole entry): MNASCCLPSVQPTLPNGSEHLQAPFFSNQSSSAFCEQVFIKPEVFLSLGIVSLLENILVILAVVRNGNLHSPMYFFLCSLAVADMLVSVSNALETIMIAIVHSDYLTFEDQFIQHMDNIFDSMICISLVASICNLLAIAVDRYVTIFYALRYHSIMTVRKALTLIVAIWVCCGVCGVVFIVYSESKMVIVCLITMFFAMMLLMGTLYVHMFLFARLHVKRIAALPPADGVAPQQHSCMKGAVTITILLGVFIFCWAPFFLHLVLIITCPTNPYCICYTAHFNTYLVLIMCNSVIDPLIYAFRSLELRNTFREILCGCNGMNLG
T2 sequence (P33032 whole entry): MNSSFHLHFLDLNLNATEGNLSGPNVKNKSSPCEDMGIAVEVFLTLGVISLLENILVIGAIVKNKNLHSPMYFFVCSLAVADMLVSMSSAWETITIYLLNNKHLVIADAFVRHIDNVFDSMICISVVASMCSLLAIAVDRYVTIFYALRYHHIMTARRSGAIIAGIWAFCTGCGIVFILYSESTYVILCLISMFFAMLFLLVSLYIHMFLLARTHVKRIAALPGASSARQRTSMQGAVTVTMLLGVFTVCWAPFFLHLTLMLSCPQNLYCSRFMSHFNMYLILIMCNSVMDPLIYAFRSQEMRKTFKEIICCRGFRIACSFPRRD

Take `NCCCN(Cc1ccc2ccccc2c1)C(=O)Cc1c[nH]c2ccccc12`: the Ki (as a rule, a measure of affinity in units of concentration, obtained from inhibition or displacement) in [1] is 63 µM; in experiment [2] it was 12 µM; in [4] it was 161 µM; in experiment [8] it was 20 µM. The result in experiment [3], in experiment [5], in experiment [6] and in experiment [7] was Active.

`NCCCCCCCCN(C/C=C/c1ccccc1)C(=O)CCc1c[nH]c2ccccc12`: the Ki in experiment [1] was found to be 24 µM; in experiment [2], 40 µM; in [4], 17 µM; in [8] it was 1.2 µM. Besides, the Ratio in [9], in experiment [10] and in experiment [11] was 10 each time.

`NCCCCN(Cc1ccc2ccccc2c1)C(=O)Cc1c[nH]c2ccccc12`: the Ki in experiment [1] amounted to 63 µM; in [2], 16 µM; in experiment [4] it was 111 µM; in [8], 15 µM. Further, the outcome in [3], in experiment [5], in experiment [6] and in experiment [7] was Active.

Regarding `NCc1cccc(CN(Cc2ccccc2)C(=O)CCCc2c[nH]c3ccccc23)c1`, the Ki came to 45 µM in [1], 32 µM in [2], 33 µM in experiment [4] and 1.9 µM in experiment [8]. For the same compound, the Ratio in [9], in experiment [10] and in experiment [11] was 10 in each case.

Regarding `NCCCCCN(C/C=C/c1ccccc1)C(=O)CCc1c[nH]c2ccccc12`, the Ki was found to be 27 µM in experiment [1], 8 µM in experiment [2], 8.1 µM in experiment [4] and 3.7 µM in experiment [8]. Further, the outcome in experiment [3], in experiment [5], in experiment [6] and in experiment [7] was Active.

As for `NCCCCCN(Cc1ccccc1)C(=O)[C@H](N)Cc1ccccn1`, the inhibition constant Ki result in [12], in experiment [13], in [14] and in [15] was “Not Active” each time.

`NCCCN(C/C=C/c1ccccc1)C(=O)Cc1c[nH]c2ccccc12`: the Ki was 21 µM in experiment [1], 26 µM in experiment [4], “Not Active” in experiment [13] and 6.4 µM in experiment [8].

As for `NCCCCCN(Cc1ccc2ccccc2c1)C(=O)CCCc1c[nH]c2ccccc12`, the Ki in experiment [1] was found to be 20 µM; in experiment [2], 34 µM; in [4], 12 µM; in [8], 5.1 µM. Further, the outcome in [3], in experiment [5], in [6] and in experiment [7] was Active.

For the compound `N=C(N)NCCCN(Cc1ccc2ccccc2c1)C(=O)CCc1c[nH]c2ccccc12`, the inhibition constant (Ki) came out at 53 µM in experiment [1], 13 µM in experiment [2], 16 µM in [4] and 12 µM in experiment [8]. For the same compound, the result in [3], in experiment [5], in experiment [6] and in [7] was Active.

As to `NCCN(Cc1ccc2ccccc2c1)C(=O)Cc1c[nH]c2ccccc12`, the Ki in experiment [1] is 68 µM; in experiment [2], 18 µM; in experiment [4] it was 140 µM; in experiment [8], 36 µM. The result in experiment [3], in [5], in [6] and in [7] was Active.

In the case of `NCCN(C(=O)Cc1ccc2ccccc2c1)C1CCc2ccccc2C1` (stereo not drawn), the Ki was 29 µM in experiment [1], 25 µM in experiment [2], 27 µM in experiment [4] and 1.6 µM in [8]. Moreover, the Ratio in experiment [9], in experiment [10] and in experiment [11] was 10 in each case.

Take `N=C(N)NCCCCN(Cc1ccc2ccccc2c1)C(=O)CCc1c[nH]c2ccccc12`: the outcome in experiment [3], in experiment [5], in experiment [6] and in [7] was Active.

Take `COc1cc(O)ccc1/C=C/CN(C(=O)CCCc1c[nH]c2ccccc12)C1CCC(CC2CCC(N)CC2)CC1` (stereo in doubt; form 2): the Ki in experiment [1] is 51 µM; in [2], 11 µM; in experiment [4], 8 µM; in experiment [8], 3.3 µM.

Turning to `NCCCCCN(Cc1ccccc1)C(=O)[C@H](N)Cc1ccc([N+](=O)[O-])cc1`, the Ki came out at 162 µM in experiment [1], 102 µM in experiment [2], 96 µM in experiment [4] and 37 µM in experiment [8].

As to `N#Cc1ccc(CN(C(=O)CCCc2c(Cc3ccc(O)cc3)[nH]c3ccccc23)C2CCC(CC3CCC(N)CC3)CC2)cc1` (stereo not drawn), the inhibition constant Ki in [1] came out at 25 µM; in [2] it was 21 µM; in experiment [4] it was 2.4 µM; in [8], 1.4 µM.

On to `COc1ccc2c(c1)c(CC(=O)N(CCCCN)C/C(C)=C/c1ccccc1)c(C)n2C(=O)c1ccc(Cl)cc1`, for which the Ki in experiment [1] was 30 µM; in experiment [2], 56 µM; in experiment [4] it was 7.1 µM; in experiment [8], 1.8 µM.

As for `NC1CCC(CC2CCC(N(Cc3ccccc3)C(=O)CCCc3c[nH]c4ccccc34)CC2)CC1` (stereo in doubt), the inhibitory constant (Ki) in [1] came out at 15 µM; in experiment [2], 105 µM; in [4], 2.6 µM; in experiment [8], 1.4 µM.

Consider `COC(=O)c1ccc(CN(C(=O)CCCc2c[nH]c3ccccc23)C2CCC(CC3CCC(N)CC3)CC2)cc1` (stereo not drawn), for which the Ki in experiment [1] was determined as 14 µM; in experiment [2] it was 9.6 µM; in [4] it was 2.2 µM; in experiment [8], 2.1 µM.

`NCCCCN(Cc1ccc2ccccc2c1)C(=O)c1c[nH]c2ccccc12`: the Ki in experiment [1] is 19 µM; in [2], 18 µM; in experiment [4], 6.4 µM; in experiment [8], 1.7 µM.

Take `CC(Cc1ccccc1)CN(CCCCCCN)C(=O)c1cc2cc(O)ccc2[nH]1` (stereo not drawn): the Ki in experiment [1] is 46 µM; in experiment [2], 31 µM; in experiment [4], 9.8 µM; in experiment [8], 2.9 µM.

With `N=C(N)NCCN(Cc1ccc2ccccc2c1)C(=O)CCc1c[nH]c2ccccc12`, the Ki in [1] is 65 µM; in experiment [2], 17 µM; in [4] it was 149 µM; in experiment [8] it was 14 µM.

With `NCCCN(C(=O)c1c[nH]c2ccccc12)C1CCc2ccccc2C1` (stereo not drawn), the Ki in experiment [1] came out at 131 µM; in experiment [2], 23 µM; in experiment [4] it was 74 µM; in [8], 4.8 µM.

Turning to `NC1CCC(CC2CCC(N(Cc3c(Cl)cccc3Cl)C(=O)CCCc3c(Cc4ccc(O)cc4)[nH]c4ccccc34)CC2)CC1` (stereo not drawn), the Ki was determined as 27 µM in experiment [1], 22 µM in experiment [2], 5.3 µM in [4] and 1.6 µM in experiment [8].

As for `NCCCN(C(=O)Cc1c[nH]c2ccccc12)C1CCc2ccccc2C1` (stereo not drawn), the Ki in experiment [1] was found to be 37 µM; in experiment [2], 25 µM; in experiment [4] it was 33 µM; in [8] it was 2.4 µM. Also, the Ratio in experiment [9], in experiment [10] and in [11] was 10 throughout.

Turning to `CC(C)N(CCCCN)C(=O)c1c(Cc2ccc(O)cc2)[nH]c2ccccc12`, the Ki in experiment [1] came to 106 µM; in [2], 353 µM; in experiment [4], 165 µM; in [8] it was 90 µM.

Take `Cc1cccc(CN(C(=O)CCCc2c[nH]c3ccccc23)C2CCC(CC3CCC(N)CC3)CC2)c1` (stereo not drawn): the Ki turned out to be 22 µM in experiment [1], 12 µM in experiment [2], 3 µM in [4] and 1.3 µM in experiment [8].

Regarding `NCCCN(CCc1ccccc1)C(=O)CCCc1c[nH]c2ccccc12`, the Ki in [1] is 30 µM; in [2] it was 33 µM; in experiment [4] it was 164 µM; in [8], 21 µM.

For `N=C(N)NCCCCN(Cc1ccc2ccccc2c1)C(=O)CCCc1c[nH]c2ccccc12`, the inhibitory constant (Ki) in experiment [1] worked out at 134 µM; in experiment [2], 11 µM; in experiment [4], 96 µM; in experiment [8], 3.2 µM.

The values above are taken from ChEMBL document CHEMBL1149662, “Design and synthesis of a library of tertiary amides: evaluation as mimetics of the melanocortins' active core” (Bioorg Med Chem, 2007).
